17 compounds from US11976083B2, “Inhibitors of peptidylarginine deiminases” (Gilead Sciences, Inc., priority 2020, dated 2024) can be followed below.

The target in the assay is T1, human PAD4 (Homo sapiens, UniProt Q9UM07).
T1 construct: human PAD4 (NM_012387), A2-P663, was PCR amplified; His-SUMO (N, cleaved yes); made in house; host or cells: E. coli BL21(DE3)
The experiment in a line: In vitro PAD4 BAEE biochemical assay. Particulars: BAEE substrate 3 mM, 5 nM PAD4, 2 mM calcium chloride; geometric mean of multiple experiments. Put shortly:
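Ammonia produced by BAEE deimination (3 mM substrate, 2 h, 25 °C) was read as fluorescent isoindole after o-phthalaldehyde/DTT derivatization, ex 405 nm/em 535 nm. Human PAD4 at 5 nM final, 2 mM calcium, pH 7.6 MOPS; compound preincubated 30 min. IC50s, normalized to BB-Cl-Amidine and DMSO controls, were geometric-mean averaged.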

T1 sequence (Q9UM07 2-663): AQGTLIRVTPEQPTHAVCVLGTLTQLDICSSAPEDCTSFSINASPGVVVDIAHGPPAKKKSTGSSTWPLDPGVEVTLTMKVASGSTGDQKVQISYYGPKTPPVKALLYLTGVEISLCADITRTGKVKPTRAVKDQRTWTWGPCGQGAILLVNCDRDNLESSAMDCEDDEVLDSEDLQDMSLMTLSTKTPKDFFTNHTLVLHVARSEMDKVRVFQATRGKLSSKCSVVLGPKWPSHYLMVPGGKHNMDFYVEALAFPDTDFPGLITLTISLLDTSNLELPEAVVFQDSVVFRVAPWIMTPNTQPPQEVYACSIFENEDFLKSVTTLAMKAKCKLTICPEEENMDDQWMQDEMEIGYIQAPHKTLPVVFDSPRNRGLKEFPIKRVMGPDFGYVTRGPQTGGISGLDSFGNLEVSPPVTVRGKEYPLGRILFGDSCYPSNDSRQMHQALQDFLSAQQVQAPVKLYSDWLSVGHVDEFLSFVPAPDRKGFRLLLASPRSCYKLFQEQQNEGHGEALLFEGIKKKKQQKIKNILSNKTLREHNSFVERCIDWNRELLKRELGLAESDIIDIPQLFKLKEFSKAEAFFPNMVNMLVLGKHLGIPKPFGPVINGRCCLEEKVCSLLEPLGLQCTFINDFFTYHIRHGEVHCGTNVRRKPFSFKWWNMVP

Consider `C[C@H]1NC(=O)C(C)(C)CCCCCCn2c(-c3nc4cc(C(=O)N5C[C@H](N)[C@@H]6CC[C@H]5C6)cc(F)c4n3C3CC3)cc3ccc1cc32` [Example 462, (11~{R})-17-[5-[(1~{S},4~{R},5~{R})-4-amino-2-azabicyclo[3.2.1]octane-2-carbonyl]-1-cyclopropyl-7-fluoro-benzimidazol-2-yl]-8,8,11-trimethyl-1,10-diazatricyclo[10.5.2.0^{15,18}]nonadeca-12(19),13,15(18),16-tetraen-9-one], for which the IC50 (in general, the concentration at which inhibition is half-maximal) is 31 nM. Then `COc1cc(C(=O)N2[C@H]3CC[C@@H]2[C@H](N)C3)cc2nc(-c3cc4ccc5nc4n3C[C@H]3C[C@H]3CC[C@@H]3C[C@H]3C(=O)N[C@@H]5C)n(C)c12` [Example 142, (3~{S),5~{R},8~{R},10~{R},13~{R})-19-[5-[(1~{R},2~{R},4~{S})-2-amino-7-azabicyclo[2.2.1]heptane-7-carbonyl]-7-methoxy-1-methyl-benzimidazol-2-yl]-13-methyl-1,12,21-triazapentacyclo[12.5.2.0^{3,5}.0^{8,10}.0^ {17,20}]henicosa-14(21),15,17(20),18-tetraen-11-one], with 28 nM; and `COc1cc(C(=O)N2C[C@H](N)[C@@H]3CC[C@H]2C3)cc2nc(-c3cc4ccc5nc4n3CCCCCc3cc(C(F)F)ccc3C(=O)N[C@@H]5C)n(C)c12` [Example 896, (2~{R})-17-[5-[(1~{S),4~{R},5~ {R})-4-amino-2-azabicyclo [3.2.1]octane-2-carbonyl]-7-methoxy-1-methyl-benzimidazol-2-yl]-8-(difluoromethyl)-2-methyl-3,16,22-triazatetracyclo [14.5.2.0^{5,10}.0^{19,23}] tricosa-1(22),5(10),6,8,17,19(23), 20-heptaen-4-one], with 56 nM. Then `C[C@H]1NC(=O)c2c(ccnc2C(F)(F)F)CCCCCn2c(-c3nc4cc(C(=O)N5C[C@H](N)[C@@H]6CC[C@H]5C6)cc(F)c4n3C3CC3)cc3ccc1nc32` [Example 478, (2~{R})-17-[5-[(1~{S},4~{R},5~{R})-4-amino-2-azabicyclo[3.2.1]octane-2-carbonyl]-1-cyclopropyl-7-fluoro-benzimidazol-2-yl]-2-methyl-6-(trifluoromethyl)-3,7,16,22-tetrazatetracyclo[14.5.2.0^{5,10).0^{19,23}] tricosa-1(22),5(10),6,8,17,19(23),20-heptaen-4-one], with 50 nM. Then `COc1cc(C(=O)N2CCC[C@@H](N)C2)cc2nc(-c3cc4ccc5nc4n3CCCCCC[C@](C)(C(F)(F)F)C(=O)N[C@@H]5C)n(C)c12` [Example 4, (8~{S},11~{R})-17-[5-[(3~{R})-3-aminopiperidine-1-carbonyl]-7-methoxy-1-methyl-benzimidazol-2-yl]-8,11-dimethyl-8-(trifluoromethyl)-1,10,19-triazatricyclo[10.5.2.0^{15,18}]nonadeca-12(19),13,15(18),16-tetraen-9-one], with 69 nM. `CO[C@@H]1CCCCC(F)(F)Cn2c(-c3nc4cc(C(=O)N[C@H]5CNCC[C@@H]5F)c(F)cc4n3C)cc3ccc(nc32)[C@@H](C)NC1=O` [Example 623, 2-[(8~{R},11~{R})-3,3-difluoro-8-methoxy-11-methyl-9-oxo-1,10,19-triazatricyclo[10.5.2.0^ {15,18}]nonadeca-12(19),13,15(18),16-tetraen-17-yl]-6-fluoro-~{N}-[(3~{S}, 4~{S})-4-fluoro-3-piperidyl]-1-methyl-benzimidazole-5-carboxamide]: the concentration for half-maximal inhibition (IC50) turned out to be 47 nM. For the compound `COc1cc(C(=O)N2CCC(OC3CC3)C(N)C2)cc2nc(-c3cc4ccc5nc4n3CCCCCCC(C)(C)C(=O)N[C@@H]5C)n(C)c12` (some centres unmarked) [Example 527, (11~{R})-17-[5-[3-amino-4-(cyclopropoxy)piperidine-1-carbonyl]-7-methoxy-1-methyl-benzimidazol-2-yl]-8,8,11-trimethyl-1,10,19-triazatricyclo[10.5.2.0^ {15,18}]nonadeca-12(19),13,15(18), 16-tetraen-9-one], the IC50 was 215 nM. For the compound `COc1cc(C(=O)N2CC[C@@H](C)[C@@H](N)[C@@H]2C)cc2nc(-c3cc4ccc5nc4n3CC(F)(F)CCC[C@@H]3C[C@H]3C(=O)N[C@@H]5C)n(C)c12` [Example 676, (2~{R},5~{R},7~{R})-14-[5-[(2~{S},3~{R},4~ {R})-3-amino-2,4-dimethyl-piperidine-1-carbonyl]-7-methoxy-1-methyl-benzimidazol-2-yl]-11,11-difluoro-2-methyl-3,13,19-triazatetracyclo[11.5.2.0^ {5,7}.0^{16,20}] icosa-1(19),14,16(20), 17-tetraen-4-one], the 50% inhibitory concentration (IC50) came to 83 nM.

Turning to `COc1cc(C(=O)N2[C@H]3CC[C@@H]2[C@H](N)C3)cc2nc(-c3cc4ccc5nc4n3CCCCCOC(C)(C)C(=O)N[C@@H]5C)n(C)c12` [Example 21, (11~{R})-17-[5-[(1~{R},2~{R},4~{S})-2-amino-7-azabicyclo[2.2.1]heptane-7-carbonyl]-7-methoxy-1-methyl-benzimidazol-2-yl]-8,8,11-trimethyl-7-oxa-1,10,19-triazatricyclo[10.5.2.0^{15,18}]nonadeca-12(19),13,15(18),16-tetraen-9-one], the IC50 came out at 63 nM. Then `COc1cc(C(=O)N2C[C@H](N)[C@@H]3CC[C@H]2C3)cc2nc(-c3cc4ccc5nc4n3CC(F)(F)CCCCC3(CC3)C(=O)N[C@@H]5C)n(C)c12` [Example 475, (11~{R})-17-[5-[(1~{S},4~{R},5~{R})-4-amino-2-azabicyclo[3.2.1]octane-2-carbonyl]-7-methoxy-1-methyl-benzimidazol-2-yl]-3,3-difluoro-11-methyl-spiro[1,10,19-triazatricyclo[10.5.2.0^{15,18}]nonadeca-12(19),13,15(18),16-tetraene-8,1′-cyclopropane]-9-one], with 62 nM. Then `C[C@H]1NC(=O)c2ccc(C(F)F)nc2CCCCCn2c(-c3nc4cc(C(=O)N5C[C@H](N)[C@@H]6CC[C@H]5C6)cc(F)c4n3[C@@H]3C[C@H]3F)cc3ccc1nc32` [Example 776, (2~{R})-17-[5-[(1~{S},4~{R}, 5~{R})-4-amino-2-azabicyclo [3.2.1]octane-2-carbonyl]-7-fluoro-1-[(1~{R},2~{R})-2-fluorocyclopropyl]benzimidazol-2-yl]-8-(difluoromethyl)-2-methyl-3,9,16,22-tetrazatetracyclo[14.5.2.0^ {5,10).0^{19,23}]tricosa-1(22),5(10),6,8,17,19(23),20-heptaen-4-one], with 17 nM; and `COc1cc(C(=O)N2[C@H]3CC[C@@H]2[C@H](N)C3)cc2nc(-c3cc4ccc5nc4n3CCCCCC[C@H](C)C(=O)N[C@@H]5C)n(C)c12` [Example 137, (8~{S},11~{R})-17-[5-[(1~{R},2~{R},4~{S})-2-amino-7-azabicyclo[2.2.1]heptane-7-carbonyl]-7-methoxy-1-methyl-benzimidazol-2-yl]-8,11-dimethyl-1,10,19-triazatricyclo[10.5.2.0^{15,18}]nonadeca-12(19),13,15(18),16-tetraen-9-one], with 35 nM. The same measure for `C[C@H]1NC(=O)c2c(Cl)cncc2CCCCCn2c(-c3nc4cc(C(=O)N[C@H]5CNCC[C@@H]5F)c(F)cc4n3C3CC3)cc3ccc1nc32` [Example 354, 2-[(2~{R})-6-chloro-2-methyl-4-oxo-3,8,16,22-tetrazatetracyclo[14.5.2.0^{5,10}.0^{19,23}]tricosa-1(22),5,7,9,17,19(23),20-heptaen-17-yl]-1-cyclopropyl-6-fluoro- ~{N}-[(3~{S},4~{S})-4-fluoro-3-piperidyl]benzimidazole-5-carboxamide]: 26 nM. In the case of `COc1cc(C(=O)N2[C@H]3CC[C@@H]2[C@H](N)C3)cc2nc(-c3cc4ccc5nc4n3CCCCCc3ccccc3C(=O)N[C@@H]5C)n(C)c12` [Example 39, (2~{R})-17-[5-[(1~{R},2~{R),4~{S})-2-amino-7-azabicyclo[2.2.1]heptane-7-carbonyl]-7-methoxy-1-methyl-benzimidazol-2-yl]-2-methyl-3,16,22-triazatetracyclo[14.5.2.0^{5,10}.0^{19,23}] tricosa-1(22),5,7,9,17,19(23),20-heptaen-4-one], the concentration for half-maximal inhibition (IC50) is 23 nM. The same measure for `COc1cc(C(=O)N2CCC[C@@H](N)C2)cc2nc(-c3cc4ccc5nc4n3CCCCCCNC(=O)c3ncccc3-5)n(C)c12` [Example 46, 17-[5-[(3~{R})-3-aminopiperidine-1-carbonyl]-7-methoxy-1-methyl-benzimidazol-2-yl]-6,9,16,22-tetrazatetracyclo[14.5.2.0^{2,7}.0^{19,23}] tricosa-1(22),2,4,6,17,19(23),20-heptaen-8-one]: 277 nM; for `CO[C@@H]1CCN(C(=O)c2cc(F)c3c(c2)nc(-c2cc4ccc5nc4n2CCCCCc2cncc(F)c2C(=O)N[C@@H]5C)n3C2CC2)C[C@@H]1N` [Example 662, (2~{R})-17-[5-[(3~{S},4~ {R})-3-amino-4-methoxy-piperidine-1-carbonyl]-1-cyclopropyl-7-fluoro-benzimidazol-2-yl]-6-fluoro-2-methyl-3,8,16,22-tetrazatetracyclo[14.5.2.0^ {5,10}.0^{19,23}] tricosa-1(22),5,7,9,17,19(23), 20-heptaen-4-one]: 32 nM.

With `CO[C@@H]1CCN(C(=O)c2ccc3c(c2)nc(-c2cc4ccc5nc4n2CCCCCc2nc(Cl)ccc2C(=O)N[C@@H]5C)n3C2CC2)C[C@@H]1N` [Example 693, (2~{R})-17-[5-[(3~{S},4~ {R})-3-amino-4-methoxy-piperidine-1-carbonyl]-1-cyclopropyl-benzimidazol-2-yl]-8-chloro-2-methyl-3,9,16,22-tetrazatetracyclo [14.5.2.0^{5,10}.0^ {19,23}]tricosa-1(22), 5(10),6,8,17,19(23), 20-heptaen-4-one], the IC50 came to 18 nM.
